According to patent publication US9233185B2, “Absorbent article” (UNICHARM CORPORATION, priority 2012, dated 2016):

How the values were obtained:
[1] = Visual evaluation of whiteness of skin contact surface of top sheet; set-up: species or system horse; key: VG (Very Good): Virtually no redness of blood remaining, and no clear delineation between areas with and without blood.; G (Good): Slight redness of blood remaining, but difficult to delineate between areas with and without blood.; F (Fair): Slight redness of blood remaining, areas with blood discernible.; P (Poor): Redness of blood completely remaining; details: after absorbent body migration rate test
Excerpt: The whiteness of the skin contact surface of the top sheet after the absorbent body migration rate test was visually evaluated on the following scale.
VG (Very Good): Virtually no redness of blood remaining, and no clear delineation between areas with and without blood.
G (Good): Slight redness of blood remaining, but difficult to delineate between areas with and without blood.
F (Fair): Slight redness of blood remaining, areas with blood discernible.
P (Poor): Redness of blood completely remaining.

[2] = Rewetting rate of sanitary napkin with top sheet coated with blood modifying agent; details: horse EDTA blood 3.0 g twice at 37±1° C.; agent coated on top sheet at about 5 g/m^2
Procedure: A commercially available sanitary napkin was prepared. The sanitary napkin was formed from a top sheet, formed of a hydrophilic agent-treated air-through nonwoven fabric (composite fiber composed of polyester and polyethylene terephthalate, basis weight: 35 g/m^2), a second sheet, formed of an air-through nonwoven fabric (composite fiber composed of polyester and polyethylene terephthalate, basis weight: 30 g/m^2), an absorbent body comprising pulp (basis weight: 150-450 g/m^2, increased at the center section), an acrylic super-absorbent polymer (basis weight: 15 g/m^2) and tissue as a core wrap, a water-repellent agent-treated side sheet, and a back sheet composed of a polyethylene film.
(§1) The skin contact surface of the top sheet of the sanitary napkin was coated with the aforementioned blood modifying agent. Each blood modifying agent was used directly, when the blood modifying agent was liquid at room temperature, or when the blood modifying agent was solid at room temperature it was heated to its melting point +20° C., and a control seam HMA gun was used for atomization of the blood modifying agent and coating onto the entire skin contact surface of the top sheet to a basis weight of about 5 g/m^2.
(§2) An acrylic board with an opened hole (200 mm×100 mm, 125 g, with a 40 mm×10 mm hole opened at the center) was placed on a top sheet comprising each blood modifying agent, and 3.0 g of horse EDTA blood at 37±1° C. (obtained by adding ethylenediaminetetraacetic acid (hereunder, “EDTA”) to horse blood to prevent coagulation) was dropped through the hole using a pipette (once), and after 1 minute, 3.0 g of horse EDTA blood at 37±1° C. was again added dropwise through the acrylic board hole with a pipette (twice).
After the second dropping of blood, the acrylic board was immediately removed and 10 sheets of filter paper (Advantec Toyo Kaisha, Ltd, Qualitative Filter Paper No. 2, 50 mm×35 mm) were placed on the location where the blood had been dropped, and then a weight was placed thereover to a pressure of 30 g/cm^2. After 1 minute, the filter paper was removed, and the “rewetting rate” was calculated by the following formula. Rewetting rate(%)=100×(filter paper mass after test−initial filter paper mass)/6

[3] = Excerpt: The term “solubility” used herein in regard to water solubility includes cases where the sample completely dissolves in deionized water to form a homogeneous mixture, and cases where the sample is completely emulsified. Here, “completely” means that no mass of the sample remains in the deionized water.
[4] = Absorbent body migration rate after second dropping of blood; details: time after second dropping of horse EDTA blood; agent about 5 g/m^2
Procedure: as §1, §2
In addition to the rewetting rate evaluation, the “absorbent body migration rate” was also measured as the time until migration of blood from the top sheet to the absorbent body after the second dropping of blood. The absorbent body migration rate is the time from introducing the blood onto the top sheet, until the redness of the blood […] on the surface and in the interior of the top sheet.

[5] = Surface tension of blood containing blood modifying agent, pendant drop method; details: sheep defibrinated blood; amount 0.10 mass %; 35 ° C.
Procedure: The surface tension of blood containing a blood modifying agent was measured by the pendant drop method, using a Drop Master500 contact angle meter by Kyowa Interface Science Co., Ltd. The surface tension was measured after adding a prescribed amount of blood modifying agent to sheep defibrinated blood, and thoroughly shaking. The measurement was accomplished automatically with a device, and the surface tension γ was determined by the following formula (see FIG. 10). γ=g×ρ×(de)^2×1/H The density ρ was measured at the temperatures listed in Table 7, according to JIS K 2249-1995, “Density test methods and density/mass/volume conversion tables”, “5. Vibrating density test method”. The measurement was accomplished using a DA-505 by Kyoto Electronics Co., Ltd.

In the case of CCCCCCCCCCCC(=O)OCC(O)CO (centres unmarked) [90-L2 Lauric acid monoglyceride, lauric acid monoglyceride], the Top sheet whiteness [1] is reported as “P” and the Rewetting rate [2] is reported as 6.2%.
In the case of CC(C)CCCCCCCCCCCCCCCOC(=O)CC(O)C(=O)OCCCCCCCCCCCCCCCC(C)C (centres unmarked) [Diisostearyl malate], the Top sheet whiteness [1] is reported as “F”, the Water solubility [3] is reported as 20< g and the “Absorbent body migration rate” value [4] is reported as 8 s. The Rewetting rate [2] was 5.5%.
In the case of CCCCCCCCOC(=O)CCCCC(=O)OCCCCCCCC [Dioctyl adipate], the Top sheet whiteness [1] is reported as “VG”, the “Absorbent body migration rate” value [4] is reported as 6 s and the Rewetting rate [2] is reported as 1.7%.
With CCCCCCCCCCCCOC(=O)CCCCCCCCCCC [ELECTOL WE20, Ester of dodecanoic acid (C12) and dodecyl alcohol (C12)] the Top sheet whiteness [1] was “VG”, the Surface tension [5] was 58.8 mN/m and the Rewetting rate [2] was 1.8%.
For CCCCCCCCCCCCCC(=O)OCCCCCCCCCCCC [ELECTOL WE40, Ester of tetradecanoic acid (C14) and dodecyl alcohol (C12)], the Top sheet whiteness [1] was “VG”, the “Absorbent body migration rate” value [4] was 4 s and the Rewetting rate [2] was 1.8%.
In the case of CCCCC(CC)C(=O)OCC(C)(C)COC(=O)C(CC)CCCC (centres unmarked) [H-208BRS, Neopentyl glycol di(2-ethylhexanoate)], the Top sheet whiteness [1] is reported as “VG”, the Water solubility [3] is reported as less than 0.05 g and the “Absorbent body migration rate” value [4] is reported as 5 s. For the same compound, the Rewetting rate [2] was 2.0%.
For CCCCC(CC)C(=O)OCC(COC(=O)C(CC)CCCC)(COC(=O)C(CC)CCCC)COC(=O)C(CC)CCCC (centres unmarked) [H-408BRS, Pentaerythritol tetra(2-ethylhexanoate)], the Top sheet whiteness [1] was “VG”.
In the case of CCCCC(CC)C(=O)OCC(COC(=O)C(CC)CCCC)OC(=O)C(CC)CCCC (centres unmarked) [PANACET 800B], the Top sheet whiteness [1] is reported as “VG”, the Water solubility [3] is reported as less than 0.05 g and the “Absorbent body migration rate” value [4] is reported as 3 s. The Rewetting rate [2] was 2.0%.
For CCCCCCCC(=O)OCC(COC(=O)CCCCCCC)OC(=O)CCCCCCC [PANACET 800], the Top sheet whiteness [1] was “VG”, the Water solubility [3] was less than 0.05 g and the “Absorbent body migration rate” value [4] was 3 s. The Rewetting rate [2] was 0.3%.
In the case of CCCCOC(=O)CC(CC(=O)OCCCC)(OC(C)=O)C(=O)OCCCC [Tributyl O-acetylcitrate], the Top sheet whiteness [1] is reported as “VG”, the Water solubility [3] is reported as less than 0.05 g and the “Absorbent body migration rate” value [4] is reported as 8 s. It also gave a Rewetting rate [2] of 6.2%.
In the case of “Caprylic acid diglyceride [Caprylic diglyceride]”, the Top sheet whiteness [1] is reported as “G”, the “Absorbent body migration rate” value [4] is reported as 9 s and the Rewetting rate [2] is reported as 4.2%.
With Isopropyl citrate the Top sheet whiteness [1] was “G”, the “Absorbent body migration rate” value [4] was 5 s and the Rewetting rate [2] was 12.2%.
